Results published in ChEMBL document CHEMBL1144604, “Synthesis and biological evaluation of phosphonate derivatives as autotaxin (ATX) inhibitors” (Bioorg Med Chem Lett, 2007).

What was measured:
Autotaxin (Homo sapiens) [1] = target: Autotaxin (Homo sapiens) (UniProt Q13822); assay: Inhibition of human recombinant ATX at 10 uM after 16 hrs; values are per cent of control
Autotaxin (Homo sapiens) [2] = target: Autotaxin (Homo sapiens) (UniProt Q13822); assay: Inhibition of human recombinant ATX at 100 uM after 16 hrs; values are per cent of control
Autotaxin (Homo sapiens) [3] = target: Autotaxin (Homo sapiens) (UniProt Q13822); assay: Inhibition of human recombinant ATX at 1 uM after 16 hrs; values are per cent of control

Row | SMILES | residual activity (Autotaxin (Homo sapiens) [1]) | residual activity (Autotaxin (Homo sapiens) [2]) | residual activity (Autotaxin (Homo sapiens) [3])
1 | CCCCCCCCCC(=O)N[C@H](Cc1ccc(OCc2ncc(C)c(OC)c2C)cc1)C(O)CP(=O)(O)O (stereo partly specified) | 86% | 30% | –
2 | CCCCCCCCCCCCCCCC(=O)N[C@@H](Cc1ccc(OC)cc1)C(=O)CP(=O)(O)O | 68% | 45% | 96%
3 | CCCCCCCCCCCCCCCC(=O)N[C@@H](Cc1ccc(OCCC(C)C)cc1)C(=O)CP(=O)(O)O | 104% | 85% | 104%
4 | CCCCCCCCCCCCCCCC(=O)N[C@@H](Cc1ccc(OCCC)cc1)C(=O)CP(=O)(O)O | 97% | 72% | –
5 | CCCCCCCCCCCCCCCC(=O)N[C@@H](Cc1ccc(OCCCCC)cc1)C(=O)CP(=O)(O)O | 83% | – | 95%
6 | CCCCCCCCCCCCCCCC(=O)N[C@@H](Cc1ccc(OCc2cc(OCC(F)(F)F)ccn2)cc1)C(=O)CP(=O)(O)O | 68% | 44% | 79%
7 | CCCCCCCCCCCCCCCC(=O)N[C@@H](Cc1ccc(OCc2ccccc2)cc1)C(=O)CP(=O)(O)O | 71% | 61% | –
8 | CCCCCCCCCCCCCCCC(=O)N[C@@H](Cc1ccc(OCc2ccccn2)cc1)C(=O)CP(=O)(O)O | 72% | 50% | 102%
9 | CCCCCCCCCCCCCCCC(=O)N[C@H](Cc1ccc(OC)cc1)C(=O)CP(=O)(O)O | 71% | 32% | 84%
10 | CCCCCCCCCCCCCCCC(=O)N[C@H](Cc1ccc(OCCC(C)C)cc1)C(=O)CP(=O)(O)O | 101% | 76% | 97%
11 | CCCCCCCCCCCCCCCC(=O)N[C@H](Cc1ccc(OCCC)cc1)C(=O)CP(=O)(O)O | 97% | 75% | 104%
12 | CCCCCCCCCCCCCCCC(=O)N[C@H](Cc1ccc(OCCCCC)cc1)C(=O)CP(=O)(O)O | 84% | – | 93%
13 | CCCCCCCCCCCCCCCC(=O)N[C@H](Cc1ccc(OCc2cc(OCC(F)(F)F)ccn2)cc1)C(=O)CP(=O)(O)O | 70% | 57% | 85%
14 | CCCCCCCCCCCCCCCC(=O)N[C@H](Cc1ccc(OCc2ccccc2)cc1)C(=O)CP(=O)(O)O | 82% | 76% | –
15 | CCCCCCCCCCCCCCCC(=O)N[C@H](Cc1ccc(OCc2ccccn2)cc1)C(=O)CP(=O)(O)O | 68% | 52% | 78%
16 | CCCCCCCCCCCCCCCC(=O)N[C@H](Cc1ccc(OCc2ncc(C)c(OC)c2C)cc1)C(=O)CP(=O)(O)O | 74% | 26% | 71%
17 | CCCCCCCCCCCCCCCC(=O)N[C@H](Cc1ccc(OCC2CCCCC2)cc1)C(O)CP(=O)(O)O (single isomer, unassigned) | 80% | 67% | 84%
18 | CCCCCCCC/C=C/CCCCCCCC(=O)N[C@@H](Cc1ccc(OCc2ncc(C)c(OC)c2C)cc1)C(O)CP(=O)(O)O (single isomer, unassigned; diastereomer a) | 45% | 15% | –
19 | CCCCCCCCCCCCCC(=O)N[C@H](Cc1ccc(OCc2ncc(C)c(OC)c2C)cc1)C(O)CP(=O)(O)O (single isomer, unassigned; diastereomer a) | 99% | 67% | –
20 | CCCCCCCCCCCCCCCC(=O)N[C@@H](Cc1ccc(OC)cc1)C(O)CP(=O)(O)O (single isomer, unassigned; diastereomer a) | 56% | 36% | 77%
21 | CCCCCCCCCCCCCCCC(=O)N[C@@H](Cc1ccc(OCCC)cc1)C(O)CP(=O)(O)O (single isomer, unassigned; diastereomer a) | 97% | 77% | 110%
22 | CCCCCCCCCCCCCCCC(=O)N[C@@H](Cc1ccc(OCCCCC)cc1)C(O)CP(=O)(O)O (single isomer, unassigned; diastereomer a) | 83% | 67% | 98%
23 | CCCCCCCCCCCCCCCC(=O)N[C@@H](Cc1ccc(OCc2ccccc2)cc1)C(O)CP(=O)(O)O (single isomer, unassigned; diastereomer a) | 77% | 68% | 97%

Row | SMILES | residual activity (Autotaxin (Homo sapiens) [1]) | residual activity (Autotaxin (Homo sapiens) [2]) | residual activity (Autotaxin (Homo sapiens) [3])
24 | CCCCCCCCCCCCCCCC(=O)N[C@@H](Cc1ccc(OCc2ccccn2)cc1)C(O)CP(=O)(O)O (single isomer, unassigned; diastereomer a) | 81% | 52% | 104%
25 | CCCCCCCCCCCCCCCC(=O)N[C@H](Cc1ccc(OC)cc1)C(O)CP(=O)(O)O (single isomer, unassigned; diastereomer a) | 78% | 57% | 100%
26 | CCCCCCCCCCCCCCCC(=O)N[C@H](Cc1ccc(OCCC(C)C)cc1)C(O)CP(=O)(O)O (single isomer, unassigned; diastereomer a) | 104% | 72% | 103%
27 | CCCCCCCCCCCCCCCC(=O)N[C@H](Cc1ccc(OCCCCC)cc1)C(O)CP(=O)(O)O (single isomer, unassigned; diastereomer a) | 85% | 80% | 81%
28 | CCCCCCCCCCCCCCCC(=O)N[C@H](Cc1ccc(OCc2cc(OCC(F)(F)F)ccn2)cc1)C(O)CP(=O)(O)O (single isomer, unassigned; diastereomer a) | 84% | 55% | 92%
29 | CCCCCCCCCCCCCCCC(=O)N[C@H](Cc1ccc(OCc2ccccc2)cc1)C(O)CP(=O)(O)O (single isomer, unassigned; diastereomer a) | 82% | 83% | 83%
30 | CCCCCCCCCCCCCCCC(=O)N[C@H](Cc1ccc(OCc2ncc(C)c(OC)c2C)cc1)C(O)CP(=O)(O)O (single isomer, unassigned; diastereomer a) | 95% | 63% | 108%
31 | CCCCCCCCCCCCCCCCCCCC(=O)N[C@@H](Cc1ccc(OCc2ncc(C)c(OC)c2C)cc1)C(O)CP(=O)(O)O (single isomer, unassigned; diastereomer a) | 45% | 10% | 64%
32 | CCCCCCCCCCCCCCCC(=O)N[C@@H](Cc1ccc(OCC2CCCCC2)cc1)C(O)CP(=O)(O)O (single isomer, unassigned; diastereomer b) | 80% | 80% | 80%
33 | CCCCCCCCCCCCCCCC(=O)N[C@@H](Cc1ccc(OCCC)cc1)C(O)CP(=O)(O)O (single isomer, unassigned; diastereomer b) | 100% | 83% | 100%
34 | CCCCCCCCCCCCCCCC(=O)N[C@@H](Cc1ccc(OCCCCC)cc1)C(O)CP(=O)(O)O (single isomer, unassigned; diastereomer b) | 90% | 70% | 94%
35 | CCCCCCCCCCCCCCCC(=O)N[C@@H](Cc1ccc(OCc2ccccc2)cc1)C(O)CP(=O)(O)O (single isomer, unassigned; diastereomer b) | 83% | 78% | 76%
36 | CCCCCCCCCCCCCCCC(=O)N[C@@H](Cc1ccc(OCc2ccccn2)cc1)C(O)CP(=O)(O)O (single isomer, unassigned; diastereomer b) | 74% | 65% | –
37 | CCCCCCCCCCCCCCCC(=O)N[C@H](Cc1ccc(OCCC(C)C)cc1)C(O)CP(=O)(O)O (single isomer, unassigned; diastereomer b) | 104% | 94% | –
38 | CCCCCCCCCCCCCCCC(=O)N[C@H](Cc1ccc(OCCC)cc1)C(O)CP(=O)(O)O (single isomer, unassigned; diastereomer b) | 108% | 90% | 108%
39 | CCCCCCCCCCCCCCCC(=O)N[C@H](Cc1ccc(OCCCCC)cc1)C(O)CP(=O)(O)O (single isomer, unassigned; diastereomer b) | 82% | 70% | 86%
40 | CCCCCCCCCCCCCCCC(=O)N[C@H](Cc1ccc(OCc2cc(OCC(F)(F)F)ccn2)cc1)C(O)CP(=O)(O)O (single isomer, unassigned; diastereomer b) | 84% | 64% | –
41 | CCCCCCCCCCCCCCCC(=O)N[C@H](Cc1ccc(OCc2ccccc2)cc1)C(O)CP(=O)(O)O (single isomer, unassigned; diastereomer b) | 81% | 83% | 80%
42 | CCCCCCCCCCCCCCCC(=O)N[C@H](Cc1ccc(OCc2ccccn2)cc1)C(O)CP(=O)(O)O (single isomer, unassigned; diastereomer b) | 78% | 69% | 92%
43 | CCCCCCCCCCCCCCCC(=O)N[C@H](Cc1ccc(OCc2ncc(C)c(OC)c2C)cc1)C(O)CP(=O)(O)O (single isomer, unassigned; diastereomer b) | 64% | 47% | 69%
44 | CCCCCCCCCCCCCCCCCC(=O)N[C@@H](Cc1ccc(OCc2ncc(C)c(OC)c2C)cc1)C(O)CP(=O)(O)O (single isomer, unassigned; diastereomer b) | 90% | 62% | –
45 | CCCCCCCCCCCCCC(=O)N[C@H](Cc1ccc(OCc2ncc(C)c(OC)c2C)cc1)C(O)CP(=O)(O)O (stereo in doubt; f38) | – | 35% | –
